Drawing on patent publication US9732094B2, “Arylquinazolines” (Merck Patent GmbH, priority 2013, dated 2017), this text covers Ki and IC50 for 25 molecules.

As a reminder, the Ki is the equilibrium dissociation constant of an inhibitor or competing ligand from its target. As a reminder, the IC50 is the concentration that inhibits the measured activity by half.

Where two headings read alike, the source gives them in different places.

The target of data set [1] is Kv11.1 (hERG) (Homo sapiens (Human), UniProt Q12809). Nature of the data set: Kv11.1 (hERG) ion channel activity (patch clamp assay), HEK293 cells transfected with hERG gene. Background: The hERG channel carries a current that helps repolarise heart muscle cells.
Kv11.1 (hERG), sequence (Q12809 whole entry): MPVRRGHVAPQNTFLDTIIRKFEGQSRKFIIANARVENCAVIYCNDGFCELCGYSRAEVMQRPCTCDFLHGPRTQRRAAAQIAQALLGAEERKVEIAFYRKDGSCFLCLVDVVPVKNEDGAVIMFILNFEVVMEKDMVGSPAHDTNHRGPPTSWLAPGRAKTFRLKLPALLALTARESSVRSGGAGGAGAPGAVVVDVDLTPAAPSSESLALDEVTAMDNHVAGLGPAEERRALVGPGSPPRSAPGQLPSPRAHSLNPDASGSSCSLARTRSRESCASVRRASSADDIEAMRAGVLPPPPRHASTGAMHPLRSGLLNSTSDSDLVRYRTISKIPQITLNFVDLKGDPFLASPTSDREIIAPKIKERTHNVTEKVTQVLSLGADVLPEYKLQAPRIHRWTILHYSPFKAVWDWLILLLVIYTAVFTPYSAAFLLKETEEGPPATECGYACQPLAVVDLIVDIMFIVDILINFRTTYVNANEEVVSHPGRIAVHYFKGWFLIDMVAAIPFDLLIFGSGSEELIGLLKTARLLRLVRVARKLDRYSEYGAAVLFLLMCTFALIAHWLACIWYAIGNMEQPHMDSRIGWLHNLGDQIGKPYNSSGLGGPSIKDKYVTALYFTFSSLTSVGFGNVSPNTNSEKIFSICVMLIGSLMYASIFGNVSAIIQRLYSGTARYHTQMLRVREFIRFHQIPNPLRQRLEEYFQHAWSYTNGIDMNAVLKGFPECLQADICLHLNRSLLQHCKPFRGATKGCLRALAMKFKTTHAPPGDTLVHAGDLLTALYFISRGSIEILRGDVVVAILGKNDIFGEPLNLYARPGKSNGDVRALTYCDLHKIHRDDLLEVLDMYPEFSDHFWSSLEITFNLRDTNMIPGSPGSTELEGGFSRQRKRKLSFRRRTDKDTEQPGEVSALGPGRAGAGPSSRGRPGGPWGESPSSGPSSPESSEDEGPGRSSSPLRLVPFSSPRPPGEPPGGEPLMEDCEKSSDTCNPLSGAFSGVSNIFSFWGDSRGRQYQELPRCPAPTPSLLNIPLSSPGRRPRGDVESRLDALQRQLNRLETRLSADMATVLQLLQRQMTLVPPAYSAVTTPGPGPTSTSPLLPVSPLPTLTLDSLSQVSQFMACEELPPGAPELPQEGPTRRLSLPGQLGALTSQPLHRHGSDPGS
For data set [2], the target named is DNA-PK phosphorylation at serine 2056 (Homo sapiens (Human), UniProt P78527). Nature of the data set: DNA-PK phosphorylation at serine 2056 (cellular), bleomycin-treated HCT116 cells, ELISA. The conditions noted are these: read-out: IC50 pDNA-PK. In kind it is cell-based. Summed up: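 HCT116 cells were treated with 10 μM bleomycin plus test compounds for six hours at 37 °C. Phospho-Ser2056 DNA-PK measured by chemiluminescent ELISA, normalised to total DNA-PKcs signal; DMSO control as blank.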
(ELISA stands for enzyme-linked immunosorbent assay.)

Data set [3] addresses DNA-PK (Homo sapiens (Human), UniProt P78527). Nature of the data set: DNA-PK assay (biochemical), flashplate 33P-ATP kinase assay. In short, it runs like this: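 Radiometric kinase reaction in streptavidin-coated flashplates, stopped with 200 mM EDTA, then 30 min room-temperature incubation and saline washes.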
Where [4] appears, read: cellular, HCT116 cells, 10 μM bleomycin, six hours.
Where [5] appears, read: Ki [Kv1.11 hERG], patch clamp, HEK293 transfected with hERG gene.
The mark [6] stands for this setting: Ki [Kv1.11 hERG], hERG patch clamp assay (cells without asterisk).
The mark [7] stands for this setting: cellular DNA-PK phosphorylation at serine 2056, HCT116.
[8] abbreviates: read-out: Ki [Kv1.11 hERG], hERG patch clamp assay (cells without asterisk).

In the case of `Cc1nccnc1[C@@H](O)c1ccc(F)c(-c2ncnc3cc(N4CCOCC4)ccc23)c1` [Example 82], in data set [1] (read-out: Ki [Kv1.11 hERG], patch clamp, HEK293 transfected with hERG gene), the Ki is greater than 25 µM. The IC50 in data set [2] (setting [4]) was 500 to 5000 nM; in data set [3] (enzymatic, 5 μM ATP), 7 to 30 nM.

In data set [1] (setting [5]), `OC(c1ccc(F)c(-c2ncnc3cc(N4CCOCC4)ccc23)c1)c1ncccc1Cl` (stereo not drawn) [Example 42, (3-Chloro-pyridin-2-yl)-[4-fluoro-3-(7-morpholin-4-yl-quinazolin-4-yl)phenyl]-methanol] showed a Ki of 15 to 25 µM. The IC50 in data set [2] (setting [4]) was less than 500 nM; in data set [3] (enzymatic, 5 μM ATP), less than 3 nM.

In data set [1] (setting [5]), `COc1cncnc1C(O)c1ccc(F)c(-c2ncnc3cc(N4CCOCC4)ccc23)c1` (stereo not drawn) [Example 87, [4-Fluoro-3-(7-morpholin-4-yl-quinazolin-4-yl)-phenyl]-(5-methoxy-pyrimidin-4-yl)-methanol] had a Ki of 15 to 25 µM. In addition, the IC50 in data set [2] (setting [4]) was less than 500 nM; in data set [3] (enzymatic, 5 μM ATP), less than 3 nM.

In data set [1] (setting [6]), `[2H]C1([2H])OC([2H])([2H])C([2H])([2H])N(c2ccc3c(-c4cc(C(O)c5nccnc5OC)c(Cl)cc4F)ncnc3c2)C1([2H])[2H]` (stereo not drawn) [Example 241, [2-Chloro-4-fluoro-5-[7-(2,2,3,3,5,5,6,6-octadeuteriomorpholin-4-yl)quinazolin-4-yl]phenyl]-(3-methoxypyrazin-2-yl)methanol] gave a Ki of 10 to 15 µM. Besides, the IC50 was less than 500 nM in data set [2] (setting [7]) and less than 3 nM in data set [3] (biochemical DNA-PK assay).

With `OC(c1cc(-c2ncnc3cc(N4CCOCC4)ccc23)c(F)cc1Cl)c1ncnc2ccoc12` (stereo not drawn) [Example 452, [2-Chloro-4-fluoro-5-(7-morpholin-4-yl-quinazolin-4-yl)-phenyl]furo[3,2-d}-pyrimidin-4-yl-methanol], the Ki in data set [1] (setting [6]) was 10 to 15 µM. Besides, the IC50 is less than 500 nM in data set [2] (setting [7]) and less than 3 nM in data set [3] (biochemical DNA-PK assay).

Molecule `COc1ccc(C(O)c2cc(-c3ncnc4cc(N5CCOCC5)ccc34)ccc2Cl)nn1` (stereo not drawn) [Example 458, [2-Chloro-5-(7-morpholin-4-yl-quinazolin-4-yl)-phenyl]-(6-methoxy-pyridazin-3-yl)-methanol] showed a Ki in data set [1] (setting [6]) of 10 to 15 µM. Further, the figures for the IC50 in data set [2] (setting [7]) and in data set [3] (biochemical DNA-PK assay) were less than 500 nM and less than 3 nM, respectively.

Consider `CNC(=O)C(c1cc(-c2ncnc3cc(N4CCOCC4)ccc23)c(F)cc1Cl)c1nccnc1OC` (stereo not drawn) [Example 229, 2-[2-Chloro-4-fluoro-5-(7-morpholin-4-yl-quinazolin-4-yl)-phenyl]-2-(3-methoxypyrazin-2-yl)-N-methyl-acetamide], for which the Ki in data set [1] (setting [8]) is greater than 25 µM. In addition, the IC50 in data set [2] (setting [7]) was in the range of 500 to 5000 nM; in data set [3] (biochemical DNA-PK assay), 7 to 30 nM.

On to `OC(c1cc(-c2ncnc3cc(N4CCOCC4)ccc23)ccc1Cl)c1ncnc2ccoc12` (stereo not drawn) [Example 415, [2-Chloro-5-(7-morpholin-4-yl-quinazolin-4-yl)-phenyl]furo[3,2-d}-pyrimidin-4-yl-methanol], for which the Ki in data set [1] (setting [8]) lay in the range of 10 to 15 µM. Also, the IC50 is less than 500 nM in data set [2] (setting [7]) and 3 to 7 nM in data set [3] (biochemical DNA-PK assay).

For `COc1ccc(C(O)c2cc(-c3ncnc4cc(N5CCOCC5)ccc34)ccc2F)nn1` (stereo not drawn) [Example 357, [2-Fluoro-5-(7-morpholin-4-yl-quinazolin-4-yl)-phenyl]-(6-methoxy-pyridazin-3-yl)-methanol], the Ki in data set [1] (setting [8]) was greater than 25 µM. Besides, the IC50 in data set [2] (setting [7]) fell in the range of 500 to 5000 nM; in data set [3] (biochemical DNA-PK assay) it was 3 to 7 nM.

`OC(c1ccc(F)c(-c2ncnc3cc(N4CCOCC4)sc23)c1)c1nccs1` (racemic) [Example 144, [4-fluoro-3-(6-morpholin-4-ylthieno[3,2-d]pyrimidin-4-yl)phenyl]thiazol-2-ylmethanol]: in data set [1] (human, HEK293 cells stably transfected with the hERG gene, Ki [Kv1.11 hERG], Table 5), the Ki lay within 15 to 25 µM. The IC50 was 500 to 5000 nM in data set [2] (Table 5, HCT116 cells) and less than 3 nM in data set [3] (Table 5).

In data set [1] (setting [6]), `COc1nccnc1C(O)c1cc(-c2ncnc3cc(N4CCOCC4)cnc23)c(F)cc1Cl` (stereo not drawn) [Example 247, [2-Chloro-4-fluoro-5-(7-morpholin-4-yl-pyrido[3,2-d}-pyrimidin-4-yl)-phenyl]-(3-methoxy-pyrazin-2-yl)-methanol] yielded a Ki of 15 to 25 µM. Besides, the half-inhibitory concentration (IC50) fell in the range of 5000 to 10000 nM in data set [2] (setting [7]) and 7 to 30 nM in data set [3] (biochemical DNA-PK assay).

Molecule `CCOc1cccnc1C(O)c1ccc(F)c(-c2ncnc3cc(N4CCOCC4)ccc23)c1` (stereo not drawn) [Example 463, (3-Ethoxy-pyridin-2-yl)-[4-fluoro-3-(7-morpholin-4-yl-quinazolin-4-yl)-phenyl]methanol] had a Ki in data set [1] (setting [6]) of 15 to 25 µM. The figures for the IC50 in data set [2] (setting [7]) and in data set [3] (biochemical DNA-PK assay) were less than 500 nM and 3 to 7 nM, respectively.

`COc1cncnc1C(O)c1cc(-c2ncnc3cc(N4CCOCC4)ccc23)c(F)cc1F` (stereo not drawn) [Example 448, [2,4-Difluoro-5-(7-morpholin-4-yl-quinazolin-4-yl)-phenyl]-(5-methoxy-pyrimidin-4-yl)-methanol]: in data set [1] (setting [6]), the Ki is 10 to 15 µM. The IC50 in data set [2] (setting [7]) was 500 to 5000 nM; in data set [3] (biochemical DNA-PK assay), less than 3 nM.

In data set [1] (setting [5]), `CCn1nc(C(O)c2cc(-c3ncnc4cc(N5CCOCC5)ccc34)c(F)cc2Cl)ccc1=O` (stereo not drawn) [Example 93, 6-{[2-Chloro-4-fluoro-5-(7-morpholin-4-yl-quinazolin-4-y1)phenyl]-hydroxymethyl}-2-ethyl-2H-pyridazin-3-one] registered a Ki of 10 to 15 µM. For the same molecule, the IC50 in data set [2] (setting [4]) is less than 500 nM; in data set [3] (enzymatic, 5 μM ATP), 3 to 7 nM.

Consider `[2H]C1([2H])OC([2H])([2H])C([2H])([2H])N(c2ccc3c(-c4cc(C(O)c5nccnc5C)ccc4F)ncnc3c2)C1([2H])[2H]` (stereo not drawn) [Example 238, [4-Fluoro-3-[7-(2,2,3,3,5,5,6,6-octadeuteriomorpholin-4-yl)quinazolin-4-yl]phenyl]-(3-methyl-pyrazin-2-yl)-methanol], for which the Ki in data set [1] (setting [6]) was in the range of 15 to 25 µM. The IC50 in data set [2] (setting [7]) is less than 500 nM; in data set [3] (biochemical DNA-PK assay) it was less than 3 nM.

In data set [1] (setting [5]), `OC(c1ccc(F)c(-c2ncnc3cc(N4CCOCC4)ccc23)c1)c1cncc(F)c1Cl` (stereo not drawn) [Example 2, (4-Chloro-5-fluoropyridin-3-yl)-[4-fluoro-3-(7-morpholin-4-ylquinazolin-4-yl)phenyl]methanol] had a Ki of 10 to 15 µM. Besides, the IC50 is less than 500 nM in data set [2] (setting [4]) and 3 to 7 nM in data set [3] (enzymatic, 5 μM ATP).

As for `OCc1csc([C@@H](O)c2cc(-c3ncnc4cc(N5CCOCC5)ccc34)c(F)cc2Cl)n1` [Example 185, (S)-[2-Chloro-4-fluoro-5-(7-morpholin-4-yl-quinazolin-4-yl)-phenyl]-(4-hydroxymethyl-thiazol-2-yl)-methanol], in data set [1] (read-out: Ki [Kv1.11 hERG], Table 5), the Ki was greater than 25 µM. The IC50 was 500 to 5000 nM in data set [2] (Table 5, HCT116 cells) and less than 3 nM in data set [3] (Table 5).

`NC(=O)C(c1ccc(F)c(-c2ncnc3cc(N4CCOCC4)ccc23)c1)c1nnc(Cl)c2ccsc12` (stereo not drawn) [Example 290, 2-(4-Chlorothieno-[2,3-d}pyridazin-7-yl)-2-[4-fluoro-3-(7-morpholin-4-yl-quinazolin-4-yl)-phenyl]acetamide]: in data set [1] (setting [8]), the Ki is less than 10 µM. Further, the values for the IC50 in data set [2] (setting [7]) and in data set [3] (biochemical DNA-PK assay) were 5000 to 10000 nM and 3 to 7 nM, respectively.

The molecule `COc1cnc(C(O)c2ccc(F)c(-c3ncnc4cc(N5CCOCC5)ccc34)c2)c(Br)c1` (stereo not drawn) [Example 473, (3-bromo-5-methoxy-pyridin-2-yl)-[4-fluoro-3-(7-morpholin-4-yl-quinazolin-4-yl)-phenyl]methanol] came in with a Ki in data set [1] (setting [6]) of 15 to 25 µM. In addition, the IC50 is less than 500 nM in data set [2] (setting [7]) and 3 to 7 nM in data set [3] (biochemical DNA-PK assay).

In data set [1] (setting [6]), `OC(c1ccc(F)c(-c2ncnc3cc(N4CCOCC4)ccc23)c1)c1ncccc1Cl` (stereo not drawn) [Example 465, (3-Chloro-pyridin-2-yl)-[4-fluoro-3-(7-morpholin-4-yl-quinazolin-4-yl)-phenyl]methanol] registered a Ki of 15 to 25 µM. Moreover, the IC50 is less than 500 nM in data set [2] (setting [7]) and less than 3 nM in data set [3] (biochemical DNA-PK assay).

On to `COc1ccc(C(C(N)=O)c2cc(-c3ncnc4cc(N5CCOCC5)ccc34)c(F)cc2Cl)nn1` (stereo not drawn) [Example 325, 2-[2-Chloro-4-f1uoro-5-(7-morpholin-4-yl-quinazolin-4-yl)-phenyl]-2-(6-methoxypyridazin-3-yl)acetamide], for which the Ki in data set [1] (setting [6]) lay within 15 to 25 µM. For the same molecule, the IC50 was 10000 to 30000 nM in data set [2] (setting [7]) and greater than 30 nM in data set [3] (biochemical DNA-PK assay).

For the molecule `Nc1nccnc1C(O)c1cc(-c2ncnc3cc(N4CCOCC4)ccc23)c(F)cc1Cl` (stereo not drawn) [Example 117, (3-Amino-pyrazin-2-yl)-[2-chloro-4-fluoro-5-(7-morpholin-4-yl-quinazolin-4-yl)-phenyl]methanol], the Ki in data set [1] (setting [5]) lay in the range of 15 to 25 µM. Further, the IC50 in data set [2] (setting [4]) fell in the range of 500 to 5000 nM; in data set [3] (enzymatic, 5 μM ATP) it was 3 to 7 nM.

As for `OC(c1cccc(-c2ncnc3cc(N4CCOCC4)ccc23)c1)c1nccs1` (stereo not drawn) [Example 148, [3-(7-Morpholin-4-ylquinazolin-4-yl)-phenyl]thiazol-2-yl-methanol], the Ki in data set [1] (Ki [Kv1.11 hERG], Table 5) lay within 10 to 15 µM. The IC50 lay in the range of 10000 to 30000 nM in data set [2] (Table 5, HCT116 cells) and 7 to 30 nM in data set [3] (Table 5).

In the case of `COc1nccnc1C(O)c1cc(-c2ncnc3cc(N4CCOCC4)ccc23)ccc1F` (stereo not drawn) [Example 394, [2-Fluoro-5-(7-morpholin-4-yl-quinazolin-4-yl)-phenyl]-(3-methoxy-pyrazin-2-yl)-methanol], in data set [1] (setting [8]), the Ki is less than 10 µM. In addition, the IC50 in data set [2] (setting [7]) was 500 to 5000 nM; in data set [3] (biochemical DNA-PK assay), 3 to 7 nM.

In data set [1] (Ki [Kv1.11 hERG], Table 5), `CC(O)(c1ccc(F)c(-c2ncnc3cc(N4CCOCC4)ccc23)c1)c1nccs1` (stereo not drawn) [Example 163, 1-[4-Fluoro-3-(7-morpholin-4-yl-quinazolin-4-yl)-phenyl]-1-thiazol-2-ylethanol] displayed a Ki of 10 to 15 µM. Besides, the IC50 in data set [2] (Table 5, HCT116 cells) lay within 10000 to 30000 nM; in data set [3] (Table 5) it was 7 to 30 nM.
